# Test results published in US20070149547A1, “Bipyridyl amides as modulators of metabotropic glutamate receptor-5” (priority 2004, published 2007).
# Molecular target: T1, hmGluR5a receptor (Homo sapiens, UniProt P41594)
# T1 construct: expressed in transfected cells; host or cells: HEK293 cells (hm5a cell line)
# Assay: Calcium flux assay (fura-2, glutamate-evoked [Ca2+]i)
# Assay type: cell-based
# Conditions: assay not given; follows the calcium flux / PI statement; read-out: IC50 (mGluR5 inhibitory activity)
# Experimental: The compounds of this invention were tested against the hmGluR5a receptor stably expressed in mouse fibroblast Ltk^− cells (the hmGluR5a/L38-20 cell line) and activity was detected by changes in [Ca^++]i, measured using the fluorescent Ca^++-sensitive dye, fura-2. InsP assays were performed in mouse fibroblast Ltk^− cells (LM5a cell line) stably expressing hmGluR5a. The assays described in International Patent Publication WO 0116121 can be used.
# The activity of compounds was examined against the hmGluR5a receptor stably expressed in human embryonic kidney HEK293 cells (the hmGluR5a cell line designated hm5a). See generally Daggett et al., Neuropharmacology 34:871-886 (1995). Receptor activity was detected by changes in intracellular calcium ([Ca^2+]i) measured using the fluorescent calcium-sensitive dye, fura-2. The hm5a cells were plated onto 96-well plates, and loaded with 3 µM fura-2 for 1 h. Unincorporated dye was washed from the cells, and the cell plate was transferred to a 96-channel fluorimeter (SIBIA-SAIC, La Jolla, Calif.) which is integrated into a fully automated plate handling and liquid delivery system. Cells were excited at 350 and 385 nm with a xenon source combined with optical filters. Emitted light was collected from the sample through a dichroic mirror and a 510 nm interference filter and directed into a cooled CCD camera (Princeton Instruments). Image pairs were captured approximately every 1 s, and ratio images were generated after background subtraction. After a basal reading of 20 s, an EC80 concentration of glutamate (10 µM) was added to the well, and the response evaluated for another 60 s. The glutamate-evoked increase in [Ca′]i in the presence of the screening compound was compared to the response of glutamate alone (the positive control).
# T1 sequence (P41594 21-1180 isoform P41594-2 limits assumed): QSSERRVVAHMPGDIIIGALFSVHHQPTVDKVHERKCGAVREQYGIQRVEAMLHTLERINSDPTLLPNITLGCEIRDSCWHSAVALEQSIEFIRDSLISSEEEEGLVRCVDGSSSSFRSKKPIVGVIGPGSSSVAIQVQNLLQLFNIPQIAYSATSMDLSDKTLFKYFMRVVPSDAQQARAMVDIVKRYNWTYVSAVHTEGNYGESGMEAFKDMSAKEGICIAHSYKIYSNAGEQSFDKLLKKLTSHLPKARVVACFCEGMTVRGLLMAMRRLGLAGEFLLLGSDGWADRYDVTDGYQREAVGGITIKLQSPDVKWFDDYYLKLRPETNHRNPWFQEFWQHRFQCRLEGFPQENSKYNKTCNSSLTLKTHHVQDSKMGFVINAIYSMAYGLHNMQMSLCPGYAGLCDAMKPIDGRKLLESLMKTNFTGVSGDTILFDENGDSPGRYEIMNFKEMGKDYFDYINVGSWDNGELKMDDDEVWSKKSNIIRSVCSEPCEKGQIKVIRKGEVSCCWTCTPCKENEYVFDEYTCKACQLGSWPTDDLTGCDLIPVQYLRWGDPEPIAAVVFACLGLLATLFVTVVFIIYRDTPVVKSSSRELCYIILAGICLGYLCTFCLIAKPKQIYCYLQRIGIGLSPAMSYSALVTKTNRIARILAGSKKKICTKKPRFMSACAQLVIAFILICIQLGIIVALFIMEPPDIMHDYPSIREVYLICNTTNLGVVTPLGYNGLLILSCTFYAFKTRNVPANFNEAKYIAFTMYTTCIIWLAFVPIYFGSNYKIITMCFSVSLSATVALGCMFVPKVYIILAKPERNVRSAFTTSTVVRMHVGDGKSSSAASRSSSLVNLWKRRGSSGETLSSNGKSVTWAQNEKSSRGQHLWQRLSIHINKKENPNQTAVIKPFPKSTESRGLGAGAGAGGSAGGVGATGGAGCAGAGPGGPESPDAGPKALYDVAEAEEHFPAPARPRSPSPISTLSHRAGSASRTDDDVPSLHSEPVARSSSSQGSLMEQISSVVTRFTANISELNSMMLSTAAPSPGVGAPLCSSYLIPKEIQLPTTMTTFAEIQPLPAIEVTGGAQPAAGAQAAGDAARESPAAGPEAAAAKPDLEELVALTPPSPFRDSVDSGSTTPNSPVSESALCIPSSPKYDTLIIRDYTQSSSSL
row,SMILES,IC50 [µM]
1,"Cc1cccc(C(=O)Nc2cccc(-c3ccccc3)n2)n1 [Example 58, 6-Methyl-N-(6-phenylpyridin-2-yl)pyridine-2-carboxamide]",3
2,"Nc1nc(C(F)(F)F)cnc1C(=O)Nc1ccccn1 [Example 38, 3-Amino-N-pyridin-2-yl-5-(trifluoromethyl)pyrazine-2-carboxamide]",1.3
3,"N#Cc1cccc(NC(=O)c2nc(Cl)cnc2N)n1 [Example 29, 3-Amino-6-chloro-N-(6-cyanopyridin-2-yl)pyrazine-2-carboxamide]",0.5
